Source: patent US5229419A, “Chemotherapeutically active acetogenins” (Purdue Research Foundation, priority 1992, dated 1993)
Converted amounts (≈) assume the structure as drawn.

How the values were obtained:
SN12-K1 = assay: NCI in vitro cytotoxicity, renal cancer; type: cell-based; settings: Homo sapiens, SN12K1
OVCAR-5 = assay: NCI in vitro cytotoxicity, ovarian cancer; type: cell-based; settings: Homo sapiens
OVCAR-4 = assay: NCI in vitro cytotoxicity, ovarian cancer; type: cell-based; settings: Homo sapiens
[1] = system: human tumor cell line panel; assay: NCI human tumor cell line panel, overall; type: cell-based; settings: Table 6 summary
SNB-44 = assay: NCI in vitro cytotoxicity, CNS cancer; type: cell-based; settings: Homo sapiens, SNB44
MCF7 = assay: NCI in vitro cytotoxicity, breast cancer; type: cell-based; settings: Homo sapiens
[2] = system: 9KB (human nasopharyngeal carcinoma); assay: 9KB cytotoxicity; type: cell-based
Procedure: Occasional checks in the potato disc (PD) assay assured us that antitumor activity was present [Ferrigni et al., J. Nat. Prod., 45; 679-686 (1982)]. Cytotoxicity tests were performed at the Purdue Cell Culture Laboratory, Purdue Cancer Center, using standard protocols for 9KB (human nasopharyngeal carcinoma) and 9PS (a chemically-induced murine lymphocytic leukemia) [Suffness et al., Methods In Cancer Research. Vol. 16: 73 (1979), V. T. DeVita, Jr. and H. Busch eds., Academic Press, New York], 9ASK (astrocytoma reversal) [Lgarashi et al., Cell Struct. and Funct., 3: 107 (1978)], A-549 (human lung carcinoma) [Giard et al., J. Nat. Cancer Inst., 51: 1417-1423 (1973)], and HT-29 (human colon adenocarcinoma) [Fogh J. (ed.), Human Tumor Cells, In Vitro, Plenum Press, New York: 115-159 (1975)].
(§1) Anticancer activity is a potential use even for the crude extract. The bioassay results for the lethality of brine shrimp (BST), the inhibition of crown gall tumors on potato discs (PD), the reversal in morphology of db-cAMP induced AC glioma cells from that of mature, differentiated astrocytes to that of immature AC glioma cells (mouse brain cells) (9ASK), the dose that inhibits cell growth to one-half that of untreated poorly differentiated human epidermic carcinoma (9KB), the dose that inhibits cell growth to one-half that of a methylcholanthrene-induced lymphoid neoplasm in a DBA/2 mouse (9PS), and the percent displacement in a protein kinase C test for initial extract fractions are shown in Table 1. Obviously, the bioactivity is concentrated in F005.

SK-MES-1 = assay: NCI in vitro cytotoxicity, non-small cell lung cancer; type: cell-based; settings: Homo sapiens
H23 = assay: as above; type: cell-based; settings: Homo sapiens
protein tyrosine kinase = protein tyrosine kinase test; type: biochemical
A704 = assay: NCI in vitro cytotoxicity, renal cancer; type: cell-based; settings: Homo sapiens
H524 = assay: NCI in vitro cytotoxicity, small cell lung cancer; type: cell-based; settings: Homo sapiens
K562 = assay: NCI in vitro cytotoxicity, leukemia; type: cell-based; settings: Homo sapiens
SW620 = assay: NCI in vitro cytotoxicity, colon cancer; type: cell-based; settings: Homo sapiens, SW-620
MALME-3M = assay: NCI in vitro cytotoxicity, melanoma; type: cell-based; settings: Homo sapiens
CAKI-1 = assay: NCI in vitro cytotoxicity, renal cancer; type: cell-based; settings: Homo sapiens
[3] = system: brine shrimp (Artemia salina Leach); assay: whole plant or invertebrate; type: in vivo; settings: 24 hrs, read-out: BST LC50
Procedure: The extracts, fractions, and isolated compounds were routinely evaluated for lethality to brine shrimp larvae (BST). The LC50 of brine shrimp (Artemia salina Leach) was determined by substantially the same method described by Meyer et al. [Planta Med., 45: 31-34 (1982)]. The test sample was dissolved in solvent and added to 2-dram vials in an amount to provide 1000, 100, 10, 1, etc. p.p.m. of material in the final brine preparation, assuming complete miscibility in the brine. The vials were dried in vacuo, and artificial sea water, prepared from a commercial salt mixture, was added. Ten brine shrimp larva (nauplii), 48-72 hrs. old, were introduced to the vial, and the volume was made up to 5 ml. with the sea water. After 24 hrs., the percent mortality was computed. Subsequently, LC50 values and 95% confidence limits were calculated by a Finney probit analysis to permit comparison of potencies of extracts and fractions.
as §1

P388/ADR = assay: NCI in vitro cytotoxicity, leukemia; type: cell-based; settings: Mus musculus
RPMI-7951 = assay: NCI in vitro cytotoxicity, melanoma; type: cell-based; settings: Homo sapiens
A-549(ATCC) = assay: NCI in vitro cytotoxicity, non-small cell lung cancer; type: cell-based; settings: Homo sapiens, A549
Text: Isolated pure compounds were sent to the National Institute of Health, National Cancer Institute, Bethesda, Md., for testing in human cancer cell line panels including leukemia, non-small cell lung cancer, small cell lung cancer, CNS cancer, melanoma, ovarian cancer and renal cancer.
To test further the selective specificity of antitumor activities, bullatacin was sent to the NIH, NCI at Bethesda, Md., for their human tumor cell line panel tests including leukemia, non-small cell lung cancer, small cell lung cancer, colon cancer, breast cancer, CNS cancer melanoma, ovarian cancer, and renal cancer.

[4] = system: cotton aphid (CA) Aphis gossypii; assay: pesticidal bioassay, cotton aphid (CA); type: in vivo; settings: at 1 ppm
Procedure: Pesticidal bioassays were conducted at Eli Lilly Laboratories (Greenfield, Ind.) following standard procedures with eight indicator organisms: mosquito larvae (ML) Aedes aegypti (in the media), blowfly larvae (BFL) (1% in the diet), corn root worm (CRW) Diabrotics undecimcuntata howardii (in soil), two-spotted spider mite (2SSM) Tetranychus urticae (on foliage), southern army worm (SAW) Spodoptera eridania (on foliage), melon aphid (MA) (5000 ppm on foliage), cotton aphid (CA) Aphis gossypii, (on foliage) and Haemonchus contortus (HC) (a nematode, 0.1% in the media).

H125 = assay: NCI in vitro cytotoxicity, non-small cell lung cancer; type: cell-based; settings: Homo sapiens
HT29 = assay: NCI in vitro cytotoxicity, colon cancer; type: cell-based; settings: Homo sapiens, HT-29

SMILES: CCCCCCCCCCC(O)C1CCC(C2CCC(C(O)CCCCCCCCCCC(O)CC3=CC(C)OC3=O)O2)O1 (stereo not shown) [Bullatacin]
- IC50 (SN12-K1): 0.0224 ng/mL (≈ 3.6e-05 µM)
- IC90 (SN12-K1): 0.000287 µg/mL (≈ 0.000461 µM)
- IC50 (OVCAR-5): 8.8 µg/mL (≈ 14.1 µM)
- IC90 (OVCAR-5): > 9.26 µg/mL
- IC50 (OVCAR-4): > 0.0924 µg/mL
- IC90 (OVCAR-4): > 0.0924 µg/mL
- tumor types most sensitive in panel [1]: best active for certain CNS cancers, non-small cell lung cancers, leukemias, and ovarian cancers
- IC50 (SNB-44): 4.42 µg/mL (≈ 7.1 µM)
- IC90 (SNB-44): > 9.26 µg/mL
- IC50 (MCF7): > 0.0924 µg/mL
- IC90 (MCF7): > 0.0924 µg/mL
- 9KB ED50 [2]: 6.188e-11 ng/mL
- IC50 (SK-MES-1): > 0.0924 µg/mL
- IC90 (SK-MES-1): > 0.0924 µg/mL
- IC50 (H23): 2.38 µg/mL (≈ 3.82 µM)
- IC90 (H23): 9.21 µg/mL (≈ 14.8 µM)
- result in the protein tyrosine kinase test (protein tyrosine kinase): negative result
- IC50 (A704): 1.36 µg/mL (≈ 2.18 µM)
- IC90 (A704): 8 µg/mL (≈ 12.8 µM)
- IC50 (H524): 2.69 µg/mL (≈ 4.32 µM)
- IC90 (H524): 7.54 µg/mL (≈ 12.1 µM)
- IC50 (K562): < 0.000926 µg/mL
- IC90 (K562): 4.5 µg/mL (≈ 7.22 µM)
- IC50 (SW620): 0.00564 µg/mL (≈ 0.00905 µM)
- IC90 (SW620): 5.66 µg/mL (≈ 9.09 µM)
- IC50 (MALME-3M): 2.82 µg/mL (≈ 4.53 µM)
- IC90 (MALME-3M): 7.67 µg/mL (≈ 12.3 µM)
- IC50 (CAKI-1): 0.00394 µg/mL (≈ 0.00632 µM)
- IC90 (CAKI-1): > 0.0924 µg/mL
- LC50 [3]: 0.00159 µg/mL (≈ 0.00255 µM)
- IC50 (P388/ADR): < 0.000926 µg/mL
- IC90 (P388/ADR): 2.56 µg/mL (≈ 4.11 µM)
- IC50 (RPMI-7951): 2.73 µg/mL (≈ 4.38 µM)
- IC90 (RPMI-7951): 7.71 µg/mL (≈ 12.4 µM)
- IC90 (A-549(ATCC)): > 0.0924 µg/mL
- toxicity to cotton aphids [4]: significantly toxic
- IC50 (H125): 2.4 µg/mL (≈ 3.85 µM)
- IC90 (H125): > 9.26 µg/mL
- IC50 (HT29): 0.00384 µg/mL (≈ 0.00616 µM)
- IC90 (HT29): > 0.0924 µg/mL
